# Laboratory results published in PubChem BioAssay (NCI).
#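 Growth conditions: 96-well plates. Treatment: test compound, 48 hours, 5 concentrations. Analysis: linear interpolation between bracketing concentrations; unreached endpoints set to highest concentration. TGI is the concentration that stops growth completely.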
# Columns and labels:
# Assay in all cases: NCI tumour cell line growth inhibition, 48 h
# 786-0 renal = test system: 786-0 renal
# A498 renal = test system: A498 renal
# A549 NSCLC = test system: A549 NSCLC
# ACHN renal = test system: ACHN renal
# BT-549 breast = test system: BT-549 breast
# CAKI-1 renal = test system: CAKI-1 renal
# CCRF-CEM leukemia = test system: CCRF-CEM leukemia
# COLO 205 colon = test system: COLO 205 colon
# DLD-1 colon = test system: DLD-1 colon
# DMS 114 small cell lung = test system: DMS 114 small cell lung
# DMS 273 small cell lung = test system: DMS 273 small cell lung
# DU-145 prostate = test system: DU-145 prostate
# EKVX NSCLC = test system: EKVX NSCLC
# HCC-2998 colon = test system: HCC-2998 colon
# HCT-116 colon = test system: HCT-116 colon
# HCT-15 colon = test system: HCT-15 colon
# HL-60(TB) leukemia = test system: HL-60(TB) leukemia
# HOP-18 NSCLC = test system: HOP-18 NSCLC
# HOP-62 NSCLC = test system: HOP-62 NSCLC
# HOP-92 NSCLC = test system: HOP-92 NSCLC
# HS 578T breast = test system: HS 578T breast
# HT29 colon = test system: HT29 colon
# IGROV1 ovarian = test system: IGROV1 ovarian
# K-562 leukemia = test system: K-562 leukemia
# KM12 colon = test system: KM12 colon
# KM20L2 colon = test system: KM20L2 colon
# LOX IMVI melanoma = test system: LOX IMVI melanoma
# LXFL 529 NSCLC = test system: LXFL 529 NSCLC
# M14 melanoma = test system: M14 melanoma
# M19-MEL melanoma = test system: M19-MEL melanoma
# MALME-3M melanoma = test system: MALME-3M melanoma
# MCF7 breast = test system: MCF7 breast
# MDA-MB-231 breast = test system: MDA-MB-231 breast
# MDA-MB-435 = test system: MDA-MB-435
# MDA-N = test system: MDA-N
# MOLT-4 leukemia = test system: MOLT-4 leukemia
# NCI-H226 lung = test system: NCI-H226 lung
# NCI-H23 lung = test system: NCI-H23 lung
# NCI-H460 lung = test system: NCI-H460 lung
# NCI-H522 lung = test system: NCI-H522 lung
# OVCAR-3 ovarian = test system: OVCAR-3 ovarian
# OVCAR-4 ovarian = test system: OVCAR-4 ovarian
# OVCAR-5 ovarian = test system: OVCAR-5 ovarian
# OVCAR-8 ovarian = test system: OVCAR-8 ovarian
# PC-3 prostate = test system: PC-3 prostate
# RPMI-8226 leukemia = test system: RPMI-8226 leukemia
# RXF 393 renal = test system: RXF 393 renal
# RXF-631 renal = test system: RXF-631 renal
# SF-268 CNS = test system: SF-268 CNS
# SF-295 CNS = test system: SF-295 CNS
# SF-539 CNS = test system: SF-539 CNS
# SK-MEL-2 melanoma = test system: SK-MEL-2 melanoma
# SK-MEL-28 melanoma = test system: SK-MEL-28 melanoma
# SK-MEL-5 melanoma = test system: SK-MEL-5 melanoma
# SK-OV-3 ovarian = test system: SK-OV-3 ovarian
# SN12C renal = test system: SN12C renal
# SNB-19 CNS = test system: SNB-19 CNS
# SNB-75 CNS = test system: SNB-75 CNS
# SNB-78 CNS = test system: SNB-78 CNS
# SR leukemia = test system: SR leukemia
# SW-620 colon = test system: SW-620 colon
# T-47D breast = test system: T-47D breast
# TK-10 renal = test system: TK-10 renal
# U251 CNS = test system: U251 CNS
# UACC-257 melanoma = test system: UACC-257 melanoma
# UACC-62 melanoma = test system: UACC-62 melanoma
# UO-31 renal = test system: UO-31 renal
# XF 498 CNS = test system: XF 498 CNS
smiles,measurement,setting,value
O=C1C=CC(=O)c2c1ccc1c3ccccc3n(-c3ccccc3)c21,TGI,786-0 renal,33 µM
same,TGI,A498 renal,35.2 µM
same,TGI,A549 NSCLC,44.2 µM
same,TGI,ACHN renal,11.1 µM
same,TGI,BT-549 breast,27 µM
same,TGI,CAKI-1 renal,19.6 µM
same,TGI,CCRF-CEM leukemia,1.94 µM
same,TGI,COLO 205 colon,22.8 µM
same,TGI,DLD-1 colon,6.99 µM
same,TGI,DMS 114 small cell lung,40.4 µM
same,TGI,DMS 273 small cell lung,32.1 µM
same,TGI,DU-145 prostate,37.2 µM
same,TGI,EKVX NSCLC,28.7 µM
same,TGI,HCC-2998 colon,50.6 µM
same,TGI,HCT-116 colon,7.03 µM
same,TGI,HCT-15 colon,10.7 µM
same,TGI,HL-60(TB) leukemia,2.34 µM
same,TGI,HOP-18 NSCLC,20.7 µM
same,TGI,HOP-62 NSCLC,37.7 µM
same,TGI,HOP-92 NSCLC,7.78 µM
same,TGI,HS 578T breast,60.5 µM
same,TGI,HT29 colon,37 µM
same,TGI,IGROV1 ovarian,34.5 µM
same,TGI,K-562 leukemia,5.08 µM
same,TGI,KM12 colon,37.7 µM
same,TGI,KM20L2 colon,36.9 µM
same,TGI,LOX IMVI melanoma,20.1 µM
same,TGI,LXFL 529 NSCLC,10.9 µM
same,TGI,M14 melanoma,21.2 µM
same,TGI,M19-MEL melanoma,36.1 µM
same,TGI,MALME-3M melanoma,16.8 µM
same,TGI,MCF7 breast,> 100 µM
same,TGI,MDA-MB-231 breast,15.9 µM
same,TGI,MDA-MB-435,30.3 µM
same,TGI,MDA-N,18.3 µM
same,TGI,MOLT-4 leukemia,2.89 µM
same,TGI,NCI-H226 lung,40 µM
same,TGI,NCI-H23 lung,34.1 µM
same,TGI,NCI-H460 lung,34.6 µM
same,TGI,NCI-H522 lung,3.15 µM
same,TGI,OVCAR-3 ovarian,21.9 µM
same,TGI,OVCAR-4 ovarian,27.2 µM
same,TGI,OVCAR-5 ovarian,31.7 µM
same,TGI,OVCAR-8 ovarian,11 µM
same,TGI,PC-3 prostate,27 µM
same,TGI,RPMI-8226 leukemia,4.59 µM
same,TGI,RXF 393 renal,5.34 µM
same,TGI,RXF-631 renal,82.2 µM
same,TGI,SF-268 CNS,40.9 µM
same,TGI,SF-295 CNS,22.2 µM
same,TGI,SF-539 CNS,29.7 µM
same,TGI,SK-MEL-2 melanoma,26.6 µM
same,TGI,SK-MEL-28 melanoma,14.4 µM
same,TGI,SK-MEL-5 melanoma,31.2 µM
same,TGI,SK-OV-3 ovarian,39.3 µM
same,TGI,SN12C renal,26.6 µM
same,TGI,SNB-19 CNS,43.7 µM
same,TGI,SNB-75 CNS,40.2 µM
same,TGI,SNB-78 CNS,53.8 µM
same,TGI,SR leukemia,1.31 µM
same,TGI,SW-620 colon,7.31 µM
same,TGI,T-47D breast,4.78 µM
same,TGI,TK-10 renal,17.8 µM
same,TGI,U251 CNS,43.7 µM
same,TGI,UACC-257 melanoma,19.2 µM
same,TGI,UACC-62 melanoma,26.2 µM
same,TGI,UO-31 renal,25.5 µM
same,TGI,XF 498 CNS,20.1 µM
